Experiments:
Assay type in all cases: cell-based
[1] = test system: LNCaP cells; assay: MTT assay / growth of LNCaP cells; conditions: for IC50: 72 hours treatment
Description: LNCaP cells were seeded at 7,000 cells per well of a 96-well cell culture plate and incubated 24 hours to allow for attachment. Test compounds were diluted in RPMI-1640/25% DMSO pre-dilutions and added to respective wells of the assay plate to maintain constant concentration of 0.25% DMSO. After addition of compounds, cells were returned to incubator (37° C., 5% CO2) for 72 hours. Following incubation, assay plates were removed from incubator and media aspirated. 30 μL complete RPMI supplemented with 0.5 mg/mL MTT (Sigma) was added to the plate, and plate returned to incubator for 4 hours. Plates were removed, and 88 μL DMSO was added. Plates were shaken at 700 rpm for 1 minute and read on spectrophotometer at 570 nm.

[2] = test system: COS-1 cells; assay: Cell death seen in COS-1 cells during the BiFC screen; conditions: 10 μM
Description: BiFC Drug Screens: COS-1 cells were grown in DMEM and seeded to 50,000 cells/well of a 12-well plate and allowed to attach for 24 hours. Cells were then transfected with three plasmids pMyc-VN155-PRMT5, pHA-VC-MEP50, and pFLAG-NLS-CFP to visualize the interaction between PRMT5:MEP50. For BiFC screens, the COS-1 cells were treated with compound or DMSO to final concentration (10 μM for compound 1-12 screen and 0.25, 0.50, 0.75, 1.0, and 5.0 μM or subsequent compound 8 screen) six hours after transfection and returned to the incubator. Following 24 hours after transfection, cells were imaged on a Nikon TE-2000U microscope and images for CFP, YFP, and phase contrast were acquired using MetaMorph software (Nikon) with 20× objective. Images were analyzed with ImageJ^70. Regions of Interest (ROI) were selected around each cell, and mean intensity was measured for each selection. A YFP:CFP ratio was calculated for DMSO as well as control treatment cells. The YFP:CFP ratio was then normalized to that of DMSO to generate the BiFC Efficiency score. The lower score indicated less PRMT5:MEP50 PPI detected in a given cell or treatment group. Inhibition (% Inhibition) is calculated as a percent of 100%−the BiFC Efficiency. […]

[3] = target: T1, PRMT5:MEP50 protein-protein interaction (Homo sapiens, UniProt O14744); assay: BiFC drug screen of PRMT5:MEP50 interaction in COS-1 cells; parameters: expressed in transfected cells; host or cells: COS-1; conditions: for rank in BiFC screen (inhibition of PRMT5:MEP50): 18 hours
T1 sequence (O14744 whole entry): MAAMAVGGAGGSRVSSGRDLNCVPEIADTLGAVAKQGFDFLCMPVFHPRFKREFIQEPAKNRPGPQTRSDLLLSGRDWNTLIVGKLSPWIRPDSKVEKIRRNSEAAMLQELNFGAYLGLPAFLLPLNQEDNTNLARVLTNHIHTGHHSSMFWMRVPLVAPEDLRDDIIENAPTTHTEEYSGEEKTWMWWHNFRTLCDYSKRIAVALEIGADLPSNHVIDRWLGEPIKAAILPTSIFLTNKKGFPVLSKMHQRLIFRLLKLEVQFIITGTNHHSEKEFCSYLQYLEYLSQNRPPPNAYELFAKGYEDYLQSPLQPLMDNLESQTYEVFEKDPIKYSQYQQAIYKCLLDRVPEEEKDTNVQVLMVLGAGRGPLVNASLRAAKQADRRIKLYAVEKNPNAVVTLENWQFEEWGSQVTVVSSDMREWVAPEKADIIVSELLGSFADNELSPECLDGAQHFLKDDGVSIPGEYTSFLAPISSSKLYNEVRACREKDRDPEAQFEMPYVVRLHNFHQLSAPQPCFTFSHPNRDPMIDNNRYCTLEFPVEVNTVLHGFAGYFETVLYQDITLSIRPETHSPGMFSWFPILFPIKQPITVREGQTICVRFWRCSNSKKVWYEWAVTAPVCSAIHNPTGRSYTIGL
Description: BiFC Drug Screens: COS-1 cells were grown in DMEM and seeded to 50,000 cells/well of a 12-well plate and allowed to attach for 24 hours. Cells were then transfected with three plasmids pMyc-VN155-PRMT5, pHA-VC-MEP50, and pFLAG-NLS-CFP to visualize the interaction between PRMT5:MEP50. For BiFC screens, the COS-1 cells were treated with compound or DMSO to final concentration (10 μM for compound 1-12 screen and 0.25, 0.50, 0.75, 1.0, and 5.0 μM or subsequent compound 8 screen) six hours after transfection and returned to the incubator. Following 24 hours after transfection, cells were imaged on a Nikon TE-2000U microscope and images for CFP, YFP, and phase contrast were acquired using MetaMorph software (Nikon) with 20× objective. Images were analyzed with ImageJ^70. Regions of Interest (ROI) were selected around each cell, and mean intensity was measured for each selection. A YFP:CFP ratio was calculated for DMSO as well as control treatment cells. The YFP:CFP ratio was then normalized to that of DMSO to generate the BiFC Efficiency score. The lower score indicated less PRMT5:MEP50 PPI detected in a given cell or treatment group. Inhibition (% Inhibition) is calculated as a percent of 100%−the BiFC Efficiency. Referring to FIGS. 6A-6C, for the BiFC screen of compounds 13-22 (including 8a and 8b), COS-1 cells were transfected for 24 hours, treated with 0.5 μM of compounds for 18 hours, and then imaged as described above. Referring to FIG. 6C, for the BiFC screen of compounds 23-26 (including 8a and 8b), COS-1 cells were transfected for 24 hours, treated with […] of compounds for 18 hours, and then imaged as described above. BiFC drug screens were performed in single biological replicate as a high throughput screen to produce ranked order of compounds, although multiple biological replicate data was used whenever available.

[4] = test system: Involucrine (IVL) gene; assay: RT-qPCR expression of IVL in LNCaP cells; conditions: 500 nM, 72 hours
Description: (§1) LNCaP cells were seeded to either 6 cm or 10 cm dishes at 800,000 or 2,200,000 cells/dish respectively. Cells were allowed to attach for 24 hours and then subsequently treated with either compound 17 (500 nM) or DMSO for 72 hours. Cells were then harvested with Trizol reagent (Ambion) and RNA integrity was verified via agarose gel electrophoresis. […] was utilized following manufacturer instructions and as described previously, as described in Deng et al., Oncogene 2017, 36 (9), 1223-123; Hsu et al., Mol. Cell. Endocrinol. 2013, 372 (1-2), 12-221; and Zhang et al., Biochim. Biophys. Acta 2014, 1839 (11), 1330-1340, each of which is incorporated herein by reference in its entirety for its teachings regarding same. RT-qPCR was performed with FastStart Universal SYBR Green Master Mix (Thermo Fisher Scientific) and detected on a QuantStudio 6 Flex with QuantStudio Real-Time PCR control software (Thermo Fisher Scientific). QuantStudio Design and Analysis software (Thermo Fisher Scientific) was used for data analysis. Technical triplicates were run for all samples, samples without detectable amplification were deemed undetected. Primer sets were validated via melt curve and agarose gel analysis of RT-qPCR product. AR primers were used as described in Deng et al., Oncogene 2017, 36 (9), 1223-123. […]

[5] = test system: androgen receptor (AR) gene; assay: RT-qPCR expression of AR in LNCaP cells; conditions: 500 nM, 72 hours
Description: as §1

[6] = test system: TP53; assay: RT-qPCR expression of TP53 in LNCaP cells; conditions: 500 nM, 72 hours
Description: as §1

[7] = test system: A549 cells; assay: IC50 in A549 NSCLC cell line; conditions: 72 hours treatment
[8] = test system: H4R3me2s; assay: Global histone H4R3me2s western blot in LNCaP cells; conditions: 72 hours
Description: For global histone H4R3 and H4R3me2s western blots, cell lysate was prepared in RIPA buffer (10 mM Tris-HCl pH 8.0, 5 mM EDTA, 1% Triton X-100, 0.1% sodium deoxycholate, 0.1% sodium dodecyl sulfate, 150 mM sodium chloride, and 5 μg/mL each chymostatin, leupeptin, pepstatin A, and antipan in DMSO, with 1 mM PMSF and total soluble protein was quantified using Bradford assay. 100 μL lysate was combined with 100 μL 2×SDS buffer, and 20 μg total lysate was loaded into the wells of a 15% acrylamide/bisacrylamide gel. The gel was run for 60 min at 125 V and transferred onto nitrocellulose membrane for 45 min at 100 V. Anti-H4R3 rabbit pAb (Abcam, ab10158) or anti-H4R3me2s rabbit pAb (Abcam, ab5823) was diluted 1:1000 in PBST and incubated overnight at 4° C. Secondary IRDyeR 800CW Donkey anti-Rabbit IgG Secondary Antibody (Li-Cor, 926-32213) was diluted 1:20,000 in PBST and incubated with the membrane, which was then imaged via LiCor Odyssey CLx imager and analyzed with ImageStudioLite software (Li-Cor). Integrated intensity of H4R3me2s band was normalized to H4R3 to determine relative abundance of H4R3me2s across DMSO and Cpd 17-treated samples.

[9] = target: T1, PRMT5:MEP50 protein-protein interaction; assay: Co-immunoprecipitation western blot in LNCaP cells; conditions: 500 nM, 24 hrs, three biological replicates
Description: LNCaP cells were treated with either DMSO or compound 17 (500 nM, 24 hrs) and harvested for Co-IP and WB in lysis buffer composed of 50 mM Tris-HCl, pH 7.4, 100 mM NaCl, 10 mM EDTA, 0.1% Triton X-100, 1 mM DTT, 1 mM PMSF, and 5 μg each of chymostatin, leupeptin, pepstatin A, and […]. Cells were lysed over 1 hour rotating in 4° C. and supernatant cleared. Total lysate (1 mg/mL) was used for Co-IP with 4 μg rabbit anti-PRMT5 pAb (Millipore Sigma 07-405), rabbit anti-MEP50 pAb (Cell Signaling Technologies S2823S) or normal rabbit IgG (Millipore Sigma N01-100 UG) overnight. Antibody-bound proteins were precipitated with Pierce Protein A agarose beads (Thermo Scientific 20333). Antibodies and immunoprecipitated proteins were prepared for western blot by adding 50 μL 2×SDS buffer, boiling at 95° C. for 5 min, and storing at -80° C. or proceeding to western blot. Co-IP product, input sample, or ladder were loaded into a 10% acrylamide/bisacrylamide gel (20 μL Co-IP, 20 μL input (0.4% total), 5 μL ladder per lane). […] Band Intensity was determined with ImageLab software and ImageJ.

[10] = test system: PTEN; assay: RT-qPCR expression of PTEN in LNCaP cells; conditions: 500 nM, 72 hours
Description: as §1

[11] = test system: RB1; assay: RT-qPCR expression of RB1 in LNCaP cells; conditions: 500 nM, 72 hours
Description: as §1

rank in BiFC screen (inhibition of PRMT5:MEP50) ([3]; 500 nM)	IC50 [1] [µM]	IC50 [7] [µM]	IC50 ([7]; Homo sapiens, A549, 72 h) [µM]	decrease in amount of MEP50 co-immunoprecipitated with PRMT5 bait [9] [%]	rank in BiFC screen (inhibition of PRMT5:MEP50) ([3]; 250 nM)	SMILES	IC50 ([1]; Homo sapiens, LNCaP, 72 h) [µM]	cell death on treatment in the BiFC assay [2]	inhibition at 0.25 µM ([3]; 0.25 μM, read-out: inhibition of the BiFC efficiency) [%]	dose-response of BiFC efficiency inhibition ([3]; 0.25-5 μM)	expression of PRMT5:MEP50-regulated IVL gene [4]	suppression of growth and induction of cell death ([1]; LNCaP cells, 250 nM, 500 nM and 1000 nM, 72 hours)	expression of PRMT5:pICln-regulated AR gene [5]	expression of TP53 [6]	dose dependence of global H4R3me2s levels ([8]; LNCaP cells, 250, 500 and 1000 nM)	decrease of global H4R3me2s ([8]; LNCaP cells) [%]	expression of PTEN [10]	expression of RB1 [11]
top four inhibitors	–	–	–	–	–	Cc1noc(C)c1COc1cccc(C(=O)NNC(=O)c2ccc(C(F)(F)F)cn2)c1 [compound 15, N′-(3-((3,5-dimethylisoxazol-4-yl)methoxy)benzoyl)-5-(trifluoromethyl)picolinohydrazide]	–	–	–	–	–	–	–	–	–	–	–	–
top four inhibitors	0.43	0.447	< 0.45	65.4	most effective	CCc1noc(C)c1COc1cccc(C(=O)NNC(=O)c2ccc3ccccc3n2)c1 [compound 17, N′-(3-((3-ethyl-5-methylisoxazol-4-yl)methoxy)benzoyl)quinoline-2-carbohydrazide]	< 0.45	–	–	–	significantly de-represses	both suppression of growth and induction of cell death in a dose-dependent manner	without significantly altering expression	to some extent TP53, albeit statistically insignificant	decreased in a dose-dependent manner	65	upregulation	upregulation

SMILES	rank in BiFC screen (inhibition of PRMT5:MEP50) ([3]; 500 nM)	IC50 [1] [µM]	IC50 [7] [µM]	IC50 ([7]; Homo sapiens, A549, 72 h) [µM]	decrease in amount of MEP50 co-immunoprecipitated with PRMT5 bait [9] [%]	rank in BiFC screen (inhibition of PRMT5:MEP50) ([3]; 250 nM)	IC50 ([1]; Homo sapiens, LNCaP, 72 h) [µM]	cell death on treatment in the BiFC assay [2]	inhibition at 0.25 µM ([3]; 0.25 μM, read-out: inhibition of the BiFC efficiency) [%]	dose-response of BiFC efficiency inhibition ([3]; 0.25-5 μM)	expression of PRMT5:MEP50-regulated IVL gene [4]	suppression of growth and induction of cell death ([1]; LNCaP cells, 250 nM, 500 nM and 1000 nM, 72 hours)	expression of PRMT5:pICln-regulated AR gene [5]	expression of TP53 [6]	dose dependence of global H4R3me2s levels ([8]; LNCaP cells, 250, 500 and 1000 nM)	decrease of global H4R3me2s ([8]; LNCaP cells) [%]	expression of PTEN [10]	expression of RB1 [11]
Cc1noc(C)c1COc1cccc(C(=O)NNC(=O)c2ccc3ccccc3n2)c1 [compound 8, N′-(3-((3,5-dimethylisoxazol-4-yl)methoxy)benzoyl)quinoline-2-carbohydrazide]	top four inhibitors	–	–	–	–	–	1.66	significant cell death	41	dose-dependent manner	–	–	–	–	–	–	–	–

Source: patent publication US20260049064A1, “PROTEIN:PROTEIN INTERACTION INHIBITORS” (Purdue Research Foundation, priority 2022, published 2026)
